Laboratory results from PMC5915530, “Immunosilencing peptides by stereochemical inversion and sequence reversal: retro-D-peptides” (Scientific Reports, 2018).
Non-standard residues stand in square brackets, D forms with d. Residues, ends and D or L forms follow the SMILES beside them.

Experiments:
[1] = test system: blood-brain barrier (BBB); conditions: parent versions, in several studies; ref not given; cited from earlier work
Source text: (§1) We have applied this previously described strategy to a family of peptide BBB shuttles (H2N-HAIYPRH-CONH2 and H2N-THRPPMWSPVWP-CONH2[14], namely HAI and THR peptides, respectively). BBB shuttles are molecular entities of diverse origin, e.g. synthetic or natural peptides, which have the capacity to cross the blood-brain barrier (BBB) and, when covalently conjugated to drugs unable to cross the BBB unaided, can deliver them into the central nervous system (CNS)[15]. Those that cross through receptor-mediated transcytosis are also included in the term ‘molecular Trojan horses’[16],[17]. Although ...

BALB/c mice = assay: Mouse immunization with unconjugated peptides, titration of peptide-specific antibodies in serum by ELISA; assay type: in vivo; conditions: seven i.p. doses of 50 μg, BALB/c mice (four per group), CFA first dose, IFA boosters, PBS last, ELISA on peptide-BSA conjugate, serum diluted from 1:100, anti-Mouse IgG-HRP, read at 450 nm, Fig. 3a, b
Source text: To date, several studies have used D-peptides as tools for vaccine development. In these cases the peptides have been conjugated to large supramolecular entities, e.g. KLH and small unilamelar liposomes containing monophosphoryl lipid A[23],[24]. Nevertheless, the use of retro-D-peptides as therapeutics was controversial twenty years ago[25],[26]. Thus, to shed light on the immunogenicity of D-peptides and add further value to these compounds, we evaluated the immunological responses activated by retro-D-THR and retro-D-HAI peptides and compared them to that of their parent peptides. For this purpose, peptides (not conjugated) were i.p. administered to mice, and antibody titration was used as parameter to evaluate immunological (humoral) response by ELISA.
Four groups of four BALB/c mice were treated with either one of the parent peptides or their retro-D-version. Each mouse received seven doses i.p. of 50 μg of peptide. Complete Freund’s[49] adjuvant (CFA) was administered in the first dose, incomplete Freund’s adjuvant (IFA) in the subsequent five booster injections, and PBS in the last one. Bleedings for the titration of specific antibody production were performed before the first dose (time zero bleeding) and five days after the fourth and last dose (Supplementary Scheme 1). The peptide-specific humoral response was quantified by ELISA. MaxiSorp plates (Nunc) were treated with 0.1 mL of the corresponding peptide-BSA conjugate (1 μg) per well in carbonate buffer, overnight at 4 °C (Supplementary Fig. 6b). Afterwards, plates were blocked with 0.2 mL PBS-Tween 20 (T20) containing 2% of milk powder for 2 h a 37 °C. Each sample serum was consecutively diluted 1/2 (starting by dilution 1:100) in PBS-T20 and incubated for 1 h at 37 °C. Incubation with a secondary antibody (dil. 1/5,000) anti-Mouse IgG-HRP (ref. R1253HRP; batch 26922; Acris) was left for 1 h at 37 °C. Washes (x3) with PBST (300 μl/well) were applied after each antibody incubation. Finally, TMB (100 μl/well) was added and left for 30 min, when the stop solution (100 μl, HClaq 1 N) blocked the colorimetric reaction. Plates were read at 450 nm (Fig. 3a–c). […]
Data were processed using GraphPad Prism 6.0 software. […] Data from human serum stability assays were analyzed as non-linear one-phase exponential decay model for L-peptides and as standard linear model with zero slope for D-peptides. Deviations from a value of 100 at each dilution point were assessed using a linear model, in which group and interaction were included as covariates. In immune response studies, each dilution point (in ELISAs) was analyzed by a Mann-Whitney test to assess differences between S0 with S1 or S2. […]

[2] = demonstrated earlier by the authors' laboratory; ref 21 (printed for retro-D-THR); cited from earlier work
Source text: as §1

Protease resistance = assay type: in vitro ADME; conditions: as stated in abstract
Description: Data were processed using GraphPad Prism 6.0 software. All results are presented as mean + SEM. Data from human serum stability assays were analyzed as non-linear one-phase exponential decay model for L-peptides and as standard linear model with zero slope for D-peptides. Deviations from a value of 100 at each dilution point were assessed using a linear model, in which group and interaction were included as covariates. In immune response studies, each dilution point (in ELISAs) was analyzed by a Mann-Whitney test to assess differences between S0 with S1 or S2. In both cases, 5% was set as a threshold for statistical significance.

| Compound | BBB permeability [1] | immunogenicity (peptide-specific humoral response, antibody titration) (BALB/c mice) | immunogenicity (peptide-specific humoral response, antibody titration) (BALB/c mice; listed as H2N-hrpyiah-CONH2) | protease-resistance [2] | protease resistance (Protease resistance) | immunogenicity (peptide-specific humoral response, antibody titration) (BALB/c mice; listed as H2N-pwvpswmpprht-CONH2) |
| --- | --- | --- | --- | --- | --- | --- |
| H2N-THRPPMWSPVWP-CONH2 (H-THRPPMWSPVWP-NH2) [parent L-peptide BBB shuttle, H2N-…-CONH2] | efficient BBB permeability | – | – | – | – | – |
| H2N-HAIYPRH-CONH2 [parent L-peptide BBB shuttle, H2N-HAIYPRH-CONH2] | efficient BBB permeability | – | – | – | – | – |
| CC[C@@H](C)[C@@H](NC(=O)[C@@H](Cc1ccc(O)cc1)NC(=O)[C@H]1CCCN1C(=O)[C@@H](CCCNC(=N)N)NC(=O)[C@H](N)Cc1c[nH]cn1)C(=O)N[C@H](C)C(=O)N[C@H](Cc1c[nH]cn1)C(N)=O [retro-D-HAI] | – | not immunogenic per se | much less immunogenic than the parent peptide | protease-resistance | protease-resistant | – |
| CSCC[C@@H](NC(=O)[C@@H](Cc1c[nH]c2ccccc12)NC(=O)[C@@H](CO)NC(=O)[C@H]1CCCN1C(=O)[C@H](NC(=O)[C@@H](Cc1c[nH]c2ccccc12)NC(=O)[C@H]1CCCN1)C(C)C)C(=O)N1CCC[C@@H]1C(=O)N1CCC[C@@H]1C(=O)N[C@H](CCCNC(=N)N)C(=O)N[C@H](Cc1c[nH]cn1)C(=O)N[C@@H](C(N)=O)[C@H](C)O [retro-D-THR] (H-[dP][dW][dV][dP][dS][dW][dM][dP][dP][dR][dH][dT]-NH2) | – | not immunogenic per se | – | protease-resistance | protease-resistant | much less immunogenic than the parent peptide |
